Reference: US20110224210A1, “NOVEL BIS-AMIDES AS ANTI-MALARIAL AGENTS” (priority 2008, published 2011)

Test system: P. falciparum K1 (strain resistant to chloroquine and pyrimethamine), erythrocytic stages
Assay: Plasmodium falciparum in vitro assay, [3H] hypoxanthine incorporation
Assay type: cell-based
Conditions: Plasmodium falciparum, K1, P. falciparum strain K1; [3H] hypoxanthine incorporation; read-out: IC50 (nM) on K1
Method in brief: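 Chloroquine/pyrimethamine-resistant K1 erythrocytic cultures (2.5% haematocrit, 0.3% parasitaemia, hypoxanthine-free RPMI with Albumax) exposed to seven doubling dilutions at 37 °C under low O2.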

Row | Structure (SMILES) | IC50
1 | COCCN(C)C(=O)[C@H](Cc1ccccc1)N(Cc1ccc(-c2ccncc2)cc1)C(=O)C=Cc1cc(C)on1 [Example 95, (S)-N-{1-[(2-Methoxy-ethyl)-methyl-carbamoyl]-2-phenyl-ethyl}-3-(5-methyl-isoxazol-3-yl)-N-(4-pyridin-4-yl-benzyl)-acrylamide] | 33 nM
2 | COCCN(C)C(=O)[C@H](Cc1ccccc1)N(Cc1ccc(-c2ccncc2)cc1)C(=O)C=Cc1c(C)noc1C [Example 96, (S)-3-(3,5-Dimethyl-isoxazol-4-yl)-N-{1-[(2-methoxy-ethyl)-methyl-carbamoyl]-2-phenyl-ethyl}-N-(4-pyridin-4-yl-benzyl)-acrylamide] | 20 nM
3 | COCCN(C)C(=O)[C@H](Cc1ccccc1)N(Cc1ccc(-c2ccncc2)cc1)C(=O)C=Cc1nc(C)oc1C [Example 97, (S)-3-(2,5-Dimethyl-oxazol-4-yl)-N-{1-[(2-methoxy-ethyl)-methyl-carbamoyl]-2-phenyl-ethyl}-N-(4-pyridin-4-yl-benzyl)-acrylamide] | 15 nM
4 | COCCN(C)C(=O)[C@H](Cc1ccccc1)N(Cc1ccc(-c2ccncc2)cc1)C(=O)C=Cc1csnn1 [Example 98, (S)-N-{1-[(2-Methoxy-ethyl)-methyl-carbamoyl]-2-phenyl-ethyl}-N-(4-pyridin-4-yl-benzyl)-3-[1,2,3]thiadiazol-4-yl-acrylamide] | 98 nM
5 | COCCN(C)C(=O)[C@H](Cc1ccccc1)N(Cc1ccc(-c2ccncc2)cc1)C(=O)C=Cc1ccc(Cl)nc1 [Example 99, (S)-3-(6-Chloro-pyridin-3-yl)-N-{1-[(2-methoxy-ethyl)-methyl-carbamoyl]-2-phenyl-ethyl}-N-(4-pyridin-4-yl-benzyl)-acrylamide] | 17 nM
6 | COCCN(C)C(=O)[C@H](Cc1ccccc1)N(Cc1ccc(-c2ccncc2)cc1)C(=O)C=Cc1ccc(C)cn1 [Example 100, (S)-N-{1-[(2-Methoxy-ethyl)-methyl-carbamoyl]-2-phenyl-ethyl}-3-(5-methyl-pyridin-2-yl)-N-(4-pyridin-4-yl-benzyl)-acrylamide] | 12 nM
7 | COCCN(C)C(=O)[C@H](Cc1ccccc1)N(Cc1ccc(-c2ccncc2)cc1)C(=O)C=Cc1ccc(OC)nc1 [Example 101, (S)-N-{1-[(2-Methoxy-ethyl)-methyl-carbamoyl]-2-phenyl-ethyl}-3-(6-methoxy-pyridin-3-yl)-N-(4-pyridin-4-yl-benzyl)-acrylamide] | 8 nM
8 | COCCN(C)C(=O)[C@H](Cc1ccccc1)N(Cc1ccc(-c2ccncc2)cc1)C(=O)C=Cc1ccc(C(F)(F)F)cn1 [Example 102, (S)-N-{1-[(2-Methoxy-ethyl)-methyl-carbamoyl]-2-phenyl-ethyl}-N-(4-pyridin-4-yl-benzyl)-3-(5-trifluoromethyl-pyridin-2-yl)-acrylamide] | 6 nM
9 | COCCN(C)C(=O)[C@H](Cc1ccccc1)N(Cc1ccc(N2CCN(C(C)=O)CC2)cc1)C(=O)C=Cc1ccn(C)n1 [Example 103, (S)-N-[4-(4-Acetyl-piperazin-1-yl)-benzyl]-N-{1-[(2-methoxy-ethyl)-methyl-carbamoyl]-2-phenyl-ethyl}-3-(1-methyl-1H-pyrazol-3-yl)-acrylamide] | 438 nM
10 | COCCN(C)C(=O)[C@H](Cc1ccccc1)N(Cc1ccc(N2CCN(C(C)=O)CC2)cc1)C(=O)C=Cc1cc(C)nn1C [Example 104, (S)-N-[4-(4-Acetyl-piperazin-1-yl)-benzyl]-3-(2,5-dimethyl-2H-pyrazol-3-yl)-N-{1-[(2-methoxy-ethyl)-methyl-carbamoyl]-2-phenyl-ethyl}-acrylamide] | 45 nM
11 | COCCN(C)C(=O)[C@H](Cc1ccccc1)N(Cc1ccc(N2CCN(C(C)=O)CC2)cc1)C(=O)C=Cc1c(C)nn(C)c1C [Example 105, (S)-N-[4-(4-Acetyl-piperazin-1-yl)-benzyl]-N-{1-[(2-methoxy-ethyl)-methyl-carbamoyl]-2-phenyl-ethyl}-3-(1,3,5-trimethyl-1H-pyrazol-4-yl)-acrylamide] | 44 nM
12 | COCCN(C)C(=O)[C@H](Cc1ccccc1)N(Cc1ccc(N2CCN(C(C)=O)CC2)cc1)C(=O)C=Cc1cnc(C)n1C [Example 106, (S)-N-[4-(4-Acetyl-piperazin-1-yl)-benzyl]-3-(2,3-dimethyl-3H-imidazol-4-yl)-N-{1-[(2-methoxy-ethyl)-methyl-carbamoyl]-2-phenyl-ethyl}-acrylamide] | 470 nM
13 | COCCN(C)C(=O)[C@H](Cc1ccccc1)N(Cc1ccc(N2CCN(C(C)=O)CC2)cc1)C(=O)C=Cc1sc(C)nc1C [Example 107, (S)-N-[4-(4-Acetyl-piperazin-1-yl)-benzyl]-3-(2,4-dimethyl-thiazol-5-yl)-N-{1-[(2-methoxy-ethyl)-methyl-carbamoyl]-2-phenyl-ethyl}-acrylamide] | 70 nM
14 | COCCN(C)C(=O)[C@H](Cc1ccccc1)N(Cc1ccc(N2CCN(C(C)=O)CC2)cc1)C(=O)C=Cc1csc(C)n1 [Example 108, (S)-N-[4-(4-Acetyl-piperazin-1-yl)-benzyl]-N-{1-[(2-methoxy-ethyl)-methyl-carbamoyl]-2-phenyl-ethyl}-3-(2-methyl-thiazol-4-yl)-acrylamide] | 225 nM
15 | COCCN(C)C(=O)[C@H](Cc1ccccc1)N(Cc1ccc(N2CCN(C(C)=O)CC2)cc1)C(=O)C=Cc1c(C)noc1C [Example 109, (S)-N-[4-(4-Acetyl-piperazin-1-yl)-benzyl]-3-(3,5-dimethyl-isoxazol-4-yl)-N-{1-[(2-methoxy-ethyl)-methyl-carbamoyl]-2-phenyl-ethyl}-acrylamide] | 100 nM
16 | COCCN(C)C(=O)[C@H](Cc1ccccc1)N(Cc1ccc(N2CCN(C(C)=O)CC2)cc1)C(=O)C=Cc1nc(C)oc1C [Example 110, (S)-N-[4-(4-Acetyl-piperazin-1-yl)-benzyl]-3-(2,5-dimethyl-oxazol-4-yl)-N-{1-[(2-methoxy-ethyl)-methyl-carbamoyl]-2-phenyl-ethyl}-acrylamide] | 324 nM
17 | COCCN(C)C(=O)[C@H](Cc1ccccc1)N(Cc1ccc(N2CCN(C(C)=O)CC2)cc1)C(=O)C=Cc1ccc(OC)nn1 [Example 111, (S)-N-[4-(4-Acetyl-piperazin-1-yl)-benzyl]-N-{1-[(2-methoxy-ethyl)-methyl-carbamoyl]-2-phenyl-ethyl}-3-(6-methoxy-pyridazin-3-yl)-acrylamide] | 214 nM
18 | COCCN(C)C(=O)[C@H](Cc1ccccc1)N(Cc1ccc(N2CCN(C(C)=O)CC2)cc1)C(=O)C=Cc1ccc(C)nc1 [Example 112, (S)-N-[4-(4-Acetyl-piperazin-1-yl)-benzyl]-N-{1-[(2-methoxy-ethyl)-methyl-carbamoyl]-2-phenyl-ethyl}-3-(6-methyl-pyridin-3-yl)-acrylamide] | 153 nM
19 | COCCN(C)C(=O)[C@H](Cc1ccccc1)N(Cc1ccc(N2CCN(C(C)=O)CC2)cc1)C(=O)C=Cc1ccc(Cl)nc1 [Example 113, (S)-N-[4-(4-Acetyl-piperazin-1-yl)-benzyl]-3-(6-chloro-pyridin-3-yl)-N-{1-[(2-methoxy-ethyl)-methyl-carbamoyl]-2-phenyl-ethyl}-acrylamide] | 84 nM
20 | COCCN(C)C(=O)[C@H](Cc1ccccc1)N(Cc1ccc(N2CCN(C(C)=O)CC2)cc1)C(=O)C=Cc1ccc(C)cn1 [Example 114, (S)-N-[4-(4-Acetyl-piperazin-1-yl)-benzyl]-N-{1-[(2-methoxy-ethyl)-methyl-carbamoyl]-2-phenyl-ethyl}-3-(5-methyl-pyridin-2-yl)-acrylamide] | 107 nM
21 | COCCN(C)C(=O)[C@H](Cc1ccccc1)N(Cc1ccc(N2CCN(C(C)=O)CC2)cc1)C(=O)C=Cc1ccc(OC)nc1 [Example 115, (S)-N-[4-(4-Acetyl-piperazin-1-yl)-benzyl]-N-{1-[(2-methoxy-ethyl)-methyl-carbamoyl]-2-phenyl-ethyl}-3-(6-methoxy-pyridin-3-yl)-acrylamide] | 32 nM
22 | COCCN(C)C(=O)[C@H](Cc1ccccc1)N(Cc1ccc(N2CCN(C(C)=O)CC2)cc1)C(=O)C=Cc1ccc(C(F)(F)F)cn1 [Example 116, (S)-N-[4-(4-Acetyl-piperazin-1-yl)-benzyl]-N-{1-[(2-methoxy-ethyl)-methyl-carbamoyl]-2-phenyl-ethyl}-3-(5-trifluoromethyl-pyridin-2-yl)-acrylamide] | < 8 nM
23 | COCCN(C)C(=O)[C@H](Cc1ccccc1)N(Cc1ccc(N2CCN(C(C)=O)CC2)cc1)C(=O)C=Cc1cnn(C)c1C [Example 117, (S)-N-[4-(4-Acetyl-piperazin-1-yl)-benzyl]-3-(1,5-dimethyl-1H-pyrazol-4-yl)-N-{1-[(2-methoxy-ethyl)-methyl-carbamoyl]-2-phenyl-ethyl}-acrylamide] | 117 nM
24 | COCCN(C)C(=O)[C@H](Cc1ccccc1)N(Cc1ccc(N2CCN(C(C)=O)CC2)cc1)C(=O)C=Cc1cnc(OC)nc1 [Example 118, (S)-N-[4-(4-Acetyl-piperazin-1-yl)-benzyl]-N-{1-[(2-methoxy-ethyl)-methyl-carbamoyl]-2-phenyl-ethyl}-3-(2-methoxy-pyrimidin-5-yl)-acrylamide] | 104 nM
25 | COCCN(C)C(=O)[C@H](Cc1ccccc1)N(Cc1ccc(-c2cncnc2)cc1)C(=O)C=Cc1ccn(C)n1 [Example 119, (S)-N-{1-[(2-Methoxy-ethyl)-methyl-carbamoyl]-2-phenyl-ethyl}-3-(1-methyl-1H-pyrazol-3-yl)-N-(4-pyrimidin-5-yl-benzyl)-acrylamide] | 81 nM
26 | COCCN(C)C(=O)[C@H](Cc1ccccc1)N(Cc1ccc(-c2cncnc2)cc1)C(=O)C=Cc1cnc(C)n1C [Example 120, (S)-3-(2,3-Dimethyl-3H-imidazol-4-yl)-N-{1-[(2-methoxy-ethyl)-methyl-carbamoyl]-2-phenyl-ethyl}-N-(4-pyrimidin-5-yl-benzyl)-acrylamide] | 285 nM
27 | COCCN(C)C(=O)[C@H](Cc1ccccc1)N(Cc1ccc(-c2cncnc2)cc1)C(=O)C=Cc1sc(C)nc1C [Example 121, (S)-3-(2,4-Dimethyl-thiazol-5-yl)-N-{1-[(2-methoxy-ethyl)-methyl-carbamoyl]-2-phenyl-ethyl}-N-(4-pyrimidin-5-yl-benzyl)-acrylamide] | 28 nM
